Values of other authors, collected in patent US10478399B2, “Modified release tablet composition comprising mirabegron” (SYNTHON B.V., priority 2017, dated 2019).

Assays:
[1] = neutral to acidic pH
[2] = presence of food in the GI tract

## Nc1nc(CC(=O)Nc2ccc(CCNC[C@H](O)c3ccccc3)cc2)cs1 [Mirabegron, (R)-2-(2-aminothiazol-4-yl)-4′-[2-[(2-hydroxy-2-phenylethyl)amino]ethyl]acetic acid anilide]
other
  permeability (BCS): low permeability
  solubility (BCS): high solubility
[1]
  solubility in water: soluble in water between neutral to acidic pH
[2]
  effect of food on bioavailability: affected by the presence of food
